By inhibition of growth is commonly meant how much of the control response was suppressed. A high value points to strong suppression.

One assay deals with Alternaria solani. As to the kind of experiment: Alternaria solani / tomato / leaf disc (early blight). The format is in vivo. As to conditions: foliar, tomato leaf disks cv. Baby, inoculated 2 days after application, compared to untreated control. The method, then:
Example B1. Alternaria solani/Tomato/Leaf Disc (Early Blight) Tomato leaf disks cv. Baby are placed on agar in multiwell plates (24-well format) and sprayed with the formulated test compound diluted in water. The leaf disks are inoculated with a spore suspension of the fungus 2 days after application. The inoculated leaf disks are incubated at 23° C./21° C. […] […]-24, and P-25.

The test system of assay [1] is Botryotinia fuckeliana (Botrytis cinerea). As to the kind of experiment: Botryotinia fuckeliana (Botrytis cinerea) / liquid culture (gray mould). As to conditions: 20 ppm; liquid culture (Vogels broth), growth inhibition photometrically 3-4 days after application; compared to untreated control. The format is cell-based. The method, then: Example B2. Botryotinia fuckeliana (Botrytis cinerea)/Liquid Culture (Gray Mould) Conidia of the fungus from cryogenic storage are directly mixed into nutrient broth (Vogels broth). After placing a (DMSO) solution of test compound into a microtiter plate (96-well format), the nutrient broth containing the fungal spores is added. The test plates are incubated at 24° C. and the inhibition of growth is determined photometrically 3-4 days after application. […] P-22.

The subject of assay [2] is Glomerella lagenarium (Colletotrichum lagenarium). As to the kind of experiment: Glomerella lagenarium (Colletotrichum lagenarium) / liquid culture (anthracnose). Format: cell-based. The conditions noted are these: Colletotrichum orbiculare, liquid culture (PDB), growth inhibition photometrically 3-4 days after application, compared to untreated control. The procedure: Example B3. Glomerella lagenarium (Colletotrichum lagenarium)/Liquid Culture (Anthracnose) Conidia of the fungus from cryogenic storage are directly mixed into nutrient broth (PDB potato dextrose broth). After placing a (DMSO) solution of test compound into a microtiter plate (96-well format), the nutrient broth containing the fungal spores is added. The test plates are incubated at 24° C. and the inhibition of growth is measured photometrically 3-4 days after application. […] […]-25, and P-26.

Assay [3] deals with Monographella nivalis (Microdochium nivale). The assay is described as follows: Monographella nivalis (Microdochium nivale) / liquid culture (foot rot cereals). The format is cell-based. As to conditions: liquid culture (PDB), growth inhibition photometrically 4-5 days after application, compared to untreated control. The method, then:
Example B6. Monographella nivalis (Microdochium nivale)/Liquid Culture (Foot Rot Cereals) Conidia of the fungus from cryogenic storage are directly mixed into nutrient broth (PDB potato dextrose broth). After placing a (DMSO) solution of test compound into a microtiter plate (96-well format), the nutrient broth containing the fungal spores is added. The test plates are incubated at 24° C. and the inhibition of growth is determined photometrically 4-5 days after application. […] […]-25, and P-26.

Assay [4] has as its system Mycosphaerella arachidis (Cercospora arachidicola). As to the kind of experiment: Mycosphaerella arachidis (Cercospora arachidicola) / liquid culture (early leaf spot). Format: cell-based. As to conditions: liquid culture (PDB), growth inhibition photometrically 4-5 days after application, compared to untreated control. The method, then: Example B7. Mycosphaerella arachidis (Cercospora arachidicola)/Liquid Culture (Early Leaf Spot) Conidia of the fungus from cryogenic storage are directly mixed into nutrient broth (PDB potato dextrose broth). After placing a (DMSO) solution of test compound into a microtiter plate (96-well format), the nutrient broth containing the fungal spores is added. The test plates are incubated at 24° C. and the inhibition of growth is determined photometrically 4-5 days after application. […] […]-22, and P-25.

In assay [5] the test system is Puccinia recondita f. sp. tritici. The assay is described as follows: Puccinia recondita f. sp. tritici / wheat / leaf disc preventative (brown rust). Format: in vivo. The conditions noted are these: foliar, wheat leaf segments cv. Kanzler, inoculated 1 day after application, compared to untreated control. The method, then: Example B8. Puccinia recondita f. Sp. tritici/Wheat/Leaf Disc Preventative (Brown Rust) Wheat leaf segments cv. Kanzler are placed on agar in multiwell plates (24-well format) and sprayed with the formulated test compound diluted in water. The leaf disks are inoculated with a spore suspension of the fungus 1 day after application. The inoculated leaf segments are incubated at 19° C. and 75% rh under a light regime of 12 h light/12 h darkness in a climate cabinet and the activity of a compound is assessed as percent disease control compared to untreated when an appropriate level of disease damage appears in untreated check leaf segments (7-9 days after application). […] […]-25, and P-26.

Assay [6] has as its system Magnaporthe grisea (Pyricularia oryzae). As to the kind of experiment: whole plant or invertebrate. The format is in vivo. The conditions noted are these: foliar, read-out: control of Magnaporthe grisea.
A further assay concerns Pyrenophora teres. As to the kind of experiment: Pyrenophora teres / barley / leaf disc preventative (net blotch). The conditions noted are these: foliar, barley leaf segments cv. Hasso, inoculated 2 days after application, compared to untreated control. The format is in vivo. The method, then: Example B10. Pyrenophora teres/Barley/Leaf Disc Preventative (Net Blotch) Barley leaf segments cv. Hasso are placed on agar in a multiwell plate (24-well format) and sprayed with the formulated test compound diluted in water. The leaf segments are inoculated with a spore suspension of the fungus 2 days after application. The inoculated leaf segments are incubated at 20° C. and 65% rh under a light regime of 12 h light/12 h darkness in a climate cabinet and the activity of a compound is assessed as disease control compared to untreated when an appropriate level of disease damage appears in untreated check leaf segments (5-7 days after application). […] […]-25, and P-26.

The test system of assay [7] is Mycosphaerella graminicola (Septoria tritici). The assay is described as follows: Mycosphaerella graminicola (Septoria tritici) / liquid culture (Septoria blotch). The format is cell-based. The conditions noted are these: Zymoseptoria tritici, liquid culture (PDB), growth inhibition photometrically 4-5 days after application, compared to untreated control. The procedure:
Example B11. Mycosphaerella graminicola (Septoria tritici)/Liquid Culture (Septoria Blotch) Conidia of the fungus from cryogenic storage are directly mixed into nutrient broth (PDB potato dextrose broth). After placing a (DMSO) solution of test compound into a microtiter plate (96-well format), the nutrient broth containing the fungal spores is added. The test plates are incubated at 24° C. and the inhibition of growth is determined photometrically 4-5 days after application.

Regarding `CC1(NC(=O)c2nc(Nc3cc(F)cc(F)c3)cc3c2OCO3)CCC1` [Compound P-22, 6-(3,5-difluoroanilino)-N-(1-methylcyclobutyl)-[1,3]dioxolo[4,5-c]pyridine-4-carboxamide], the pest or weed control at 200 ppm (in the assay with Alternaria solani; in assay [5]; in [6]; in the assay with Pyrenophora teres) was ≥ 80% throughout. The “control of Botryotinia fuckeliana” value in assay [1] is on record as “at least 80%”. The inhibition of growth at 20 ppm in [2], in assay [3], in assay [4] and in assay [7] was ≥ 80% each time.

These data come from patent US12497406B2, “Microbiocidal derivatives” (SYNGENTA CROP PROTECTION AG, priority 2019, dated 2025).
